The values that follow come from patent publication US9108959B2, “Process for the preparation of an orexin receptor antagonist” (Merck Sharp & Dohme Corp., priority 2011, dated 2015).

This series in a line: relative thermodynamic stability of crystalline forms (slurry of equal amounts of the two forms in EtOH at various temperatures). It counts as physicochemical. The settings on record: for temperatures at which the form is the thermodynamically most stable crystalline form: enantiotropically related forms. The procedure: Anhydrous form I and Anhydrous form II are enatiotropically related. […] The transition temperature between anhydrous form I and anhydrous form II was determined by slurring a mixture containing equal amounts of the two forms in EtOH at various temperatures. The transition temperature between anhydrous form I and anhydrous form II is between 35 and 40° C. […] Anhydrous Form II can be synthesized using a crystallization process that is more efficient and results in improved particle size and morphology control relative to anhydrous form I. Anhydrous form II has better crystallinity, better filtration properties and gives better purity rejection than anhydrous form I. Anhydrous form II has better processability for preparing formulations than Anhydrous form I.

With `Cc1ccc(-n2nccn2)c(C(=O)N2CCN(c3nc4cc(Cl)ccc4o3)CC[C@H]2C)c1` [Anhydrous form I, [(7R)-4-(5-chloro-1,3-benzoxazol-2-yl)-7-methyl-1,4-diazepan-1-yl][5-methyl-2-(2H-1,2,3-triazol-2-yl)phenyl]methanone], the “temperatures at which the form is the thermodynamically most stable crystalline form” value is at most 35 °C. Further, where the note is “at 25° C.”, the “stability of crystalline phase” value was “most stable crystalline phase”.

For the molecule `Cc1ccc(-n2nccn2)c(C(=O)N2CCN(c3nc4cc(Cl)ccc4o3)CC[C@H]2C)c1` [Anhydrous form II, [(7R)-4-(5-chloro-1,3-benzoxazol-2-yl)-7-methyl-1,4-diazepan-1-yl][5-methyl-2-(2H-1,2,3-triazol-2-yl)phenyl]methanone], the “temperatures at which the form is the thermodynamically most stable crystalline form” value was at least 40 °C.
